Where no end group is shown, it is not given here. The star is where a group is joined. Biotin = O=C1N[C@H]2[C@H](CS[C@H]2CCCCC(=O)*)N1
Legend:
[1] = test system: human HHAT; assay: HHAT activity measurement with [3H] palmitoyl CoA and biotinylated substrate peptide on Streptavidin FlashPlate; type: biochemical; details: 10 μM substrate peptide, reaction 1 hour, FIG. 2
Source text: A peptide (Shh-(24-38)) having 15-mer peptide comprised of amino acids from the 24th position to the 38th position of human Shh (SEQ ID NO: 22) modified with biotin at the lysine residue at the carboxylic terminus, and a peptide (Shh-(24-45)) having 22-mer peptide comprised of amino acids from the 24th position to the 45th position of human Shh modified with biotin at the lysine residue at the carboxylic terminus, were synthesized as a substrate peptide. An HHAT activity measuring system was produced by adding 50 μl reaction buffer (10 mM Tris-HCl (pH7.4), 50 mM magnesium chloride, 2 μM [^3H] palmitoyl CoA, and 400 μg/ml of HHAT enzyme solution) to a 96-well plate coated with streptavidin and a scintillator (Streptavidin FlashPlate, PerkinElmer). The above-mentioned synthetic peptides were added to the reaction system and reacted for a predetermined period. Then, the reaction was terminated by adding 200 μl of 1% aqueous solution of Triton X-100 to the reaction solution. After the reaction, the radioactivity of the reaction solution was measured by the scintillation counter as an HHAT activity.
[^3H] palmitoyl CoA was prepared from [^3H] palmitic acid (GE Healthcare) by a method described in Methods in Enzymology, 250, 299-300, 1995. […]

[2] = test system: human HHAT; assay: Knockdown efficiency of siRNA checked with the TaqMan method (quantitative RT-PCR), human HHAT expression; type: cell-based; details: HT-29 cells, 100 nM siRNA, 5th day after introduction, vs non-silencing siRNA
Experimental: (§1) […] After culturing the cells overnight, siRNA to human Shh (Ambion; SEQ ID NO: 19), siRNA to human HHAT (Ambion; SEQ ID NO: 20), or non-silencing siRNA (Dhamacon, SEQ ID NO: 21) as a control was introduced. The introduction was performed by adding a mixture of 0.4 μl of DhamaFECT4 reagent (Dhamacon) per well and 100 nM of each siRNA to the cells. The knockdown efficiency of each siRNA at this point was checked with the TaqMan method. On the 5th day after the introduction of siRNA, total RNA was extracted from the HT-29 cells using RNeasy mini kit (QIAGEN), and cDNA was synthesized from a random primer using the TaqMan Gold RT-PCR kit (Applied Biosystems). 2 μl of the synthesized cDNA, 10 μl of 2×TaqMan Universal PCR Master Mix (Applied Biosystems), 1 μl of 20×TaqMan Gene Expression Assay (Applied Biosystems) to the human Shh or HHAT, and 7 μl of distilled water were added together to a total amount of 20 μl. This was used as a reaction solution of quantificative RT-PCR.
(§2) Regarding the reaction solution, the expression of human Shh or human HHAT was quantified in the ratio to GAPDH using the ABI PRISM 7700 Sequence Detection System. As compared with the control, the gene expression was suppressed by about 75% in the case of siRNA to human Shh and by about 60% in the case of siRNA to human HHAT.

[3] = test system: human Shh; assay: Knockdown efficiency of siRNA checked with the TaqMan method (quantitative RT-PCR), human Shh expression; type: cell-based; details: HT-29 cells, 100 nM siRNA, 5th day after introduction, vs non-silencing siRNA
Experimental: as §1, §2

| Substance | HHAT activity (radioactivity of [3H]-palmitic acid added to the substrate peptide) compared with control without HHAT enzyme solution [1] | other results |
| --- | --- | --- |
| Shh-(24-38): 15-mer peptide of amino acids 24 to 38 of human Shh (SEQ ID NO: 22), biotin-modified at the carboxy-terminal lysine residue; HHAT substrate peptide (CGPGRGFGKRRHPKK(Biotin)) | conspicuous increase of the radioactivity | – |
| Shh-(24-45): 22-mer peptide of amino acids 24 to 45 of human Shh, biotin-modified at the carboxy-terminal lysine residue; HHAT substrate peptide (CGPGRGFGKRRHPKKLTPLAYK(Biotin)) | conspicuous increase of the radioactivity | – |
| siRNA to human HHAT: siRNA to human HHAT (Ambion; SEQ ID NO: 20) (GGAAUUUGAGCUGGAGACUTT; chemistry not given here) | – | suppression of gene expression of human HHAT (ratio to GAPDH) compared with the control [2]: about 60% |
| siRNA to human Shh: siRNA to human Shh (Ambion; SEQ ID NO: 19) (GGGAAGAUCUCCAGAAACUTT; chemistry not given here) | – | suppression of gene expression of human Shh (ratio to GAPDH) compared with the control [3]: about 75% |

Source: US20090047282A1, “Prophylactic/Therapeutic Agent for Cancer” (priority 2005, published 2009)
